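Each compound was tested at five concentrations against cells in 96-well plates for 48 hours. TGI is the concentration that stops growth completely.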
How the values were obtained:
Assay in all cases: NCI tumour cell line growth inhibition, 48 h
786-0 renal = test system: 786-0 renal
A498 renal = test system: A498 renal
A549 NSCLC = test system: A549 NSCLC
ACHN renal = test system: ACHN renal
BT-549 breast = test system: BT-549 breast
CAKI-1 renal = test system: CAKI-1 renal
CCRF-CEM leukemia = test system: CCRF-CEM leukemia
COLO 205 colon = test system: COLO 205 colon
DU-145 prostate = test system: DU-145 prostate
EKVX NSCLC = test system: EKVX NSCLC
HCC-2998 colon = test system: HCC-2998 colon
HCT-116 colon = test system: HCT-116 colon
HCT-15 colon = test system: HCT-15 colon
HL-60(TB) leukemia = test system: HL-60(TB) leukemia
HOP-62 NSCLC = test system: HOP-62 NSCLC
HOP-92 NSCLC = test system: HOP-92 NSCLC
HS 578T breast = test system: HS 578T breast
HT29 colon = test system: HT29 colon
IGROV1 ovarian = test system: IGROV1 ovarian
K-562 leukemia = test system: K-562 leukemia
KM12 colon = test system: KM12 colon
LOX IMVI melanoma = test system: LOX IMVI melanoma
M14 melanoma = test system: M14 melanoma
MALME-3M melanoma = test system: MALME-3M melanoma
MCF7 breast = test system: MCF7 breast
MDA-MB-231 breast = test system: MDA-MB-231 breast
MDA-MB-435 = test system: MDA-MB-435
MDA-N = test system: MDA-N
MOLT-4 leukemia = test system: MOLT-4 leukemia
NCI-H226 lung = test system: NCI-H226 lung
NCI-H23 lung = test system: NCI-H23 lung
NCI-H460 lung = test system: NCI-H460 lung
NCI-H522 lung = test system: NCI-H522 lung
NCI/ADR-RES ovarian = test system: NCI/ADR-RES ovarian
OVCAR-3 ovarian = test system: OVCAR-3 ovarian
OVCAR-4 ovarian = test system: OVCAR-4 ovarian
OVCAR-5 ovarian = test system: OVCAR-5 ovarian
OVCAR-8 ovarian = test system: OVCAR-8 ovarian
PC-3 prostate = test system: PC-3 prostate
RPMI-8226 leukemia = test system: RPMI-8226 leukemia
RXF 393 renal = test system: RXF 393 renal
SF-268 CNS = test system: SF-268 CNS
SF-295 CNS = test system: SF-295 CNS
SF-539 CNS = test system: SF-539 CNS
SK-MEL-2 melanoma = test system: SK-MEL-2 melanoma
SK-MEL-28 melanoma = test system: SK-MEL-28 melanoma
SK-MEL-5 melanoma = test system: SK-MEL-5 melanoma
SK-OV-3 ovarian = test system: SK-OV-3 ovarian
SN12C renal = test system: SN12C renal
SNB-19 CNS = test system: SNB-19 CNS
SNB-75 CNS = test system: SNB-75 CNS
SR leukemia = test system: SR leukemia
SW-620 colon = test system: SW-620 colon
T-47D breast = test system: T-47D breast
TK-10 renal = test system: TK-10 renal
U251 CNS = test system: U251 CNS
UACC-257 melanoma = test system: UACC-257 melanoma
UACC-62 melanoma = test system: UACC-62 melanoma
UO-31 renal = test system: UO-31 renal

CCOC(=O)/C=C(\C(=O)OCC)n1cc(C)c(=O)n(Cc2cnnn2COCCOC(C)=O)c1=O
TGI (786-0 renal): 14.9 µM
TGI (A498 renal): 35.9 µM
TGI (A549 NSCLC): 47.1 µM
TGI (ACHN renal): 7.46 µM
TGI (BT-549 breast): 16.3 µM
TGI (CAKI-1 renal): 8.06 µM
TGI (CCRF-CEM leukemia): 5.57 µM
TGI (COLO 205 colon): 4.33 µM
TGI (DU-145 prostate): 48 µM
TGI (EKVX NSCLC): 24.6 µM
TGI (HCC-2998 colon): 30.7 µM
TGI (HCT-116 colon): 22.2 µM
TGI (HCT-15 colon): 12 µM
TGI (HL-60(TB) leukemia): 12.7 µM
TGI (HOP-62 NSCLC): 55.6 µM
TGI (HOP-92 NSCLC): 4.27 µM
TGI (HS 578T breast): 46.8 µM
TGI (HT29 colon): 21.2 µM
TGI (IGROV1 ovarian): 21.8 µM
TGI (K-562 leukemia): 19.2 µM
TGI (KM12 colon): 31.8 µM
TGI (LOX IMVI melanoma): 21 µM
TGI (M14 melanoma): 57.5 µM
TGI (MALME-3M melanoma): 3.42 µM
TGI (MCF7 breast): 24.5 µM
TGI (MDA-MB-231 breast): 42.7 µM
TGI (MDA-MB-435): 28.1 µM
TGI (MDA-N): 44 µM
TGI (MOLT-4 leukemia): 8.7 µM
TGI (NCI-H226 lung): 35 µM
TGI (NCI-H23 lung): 34.2 µM
TGI (NCI-H460 lung): 35.6 µM
TGI (NCI-H522 lung): 2910 nM
TGI (NCI/ADR-RES ovarian): 43.7 µM
TGI (OVCAR-3 ovarian): 26 µM
TGI (OVCAR-4 ovarian): 32 µM
TGI (OVCAR-5 ovarian): 43.8 µM
TGI (OVCAR-8 ovarian): 20.6 µM
TGI (PC-3 prostate): > 59.2 µM
TGI (RPMI-8226 leukemia): 18.5 µM
TGI (RXF 393 renal): 13.2 µM
TGI (SF-268 CNS): 38.5 µM
TGI (SF-295 CNS): 69.3 µM
TGI (SF-539 CNS): 6.89 µM
TGI (SK-MEL-2 melanoma): 41.7 µM
TGI (SK-MEL-28 melanoma): 31.5 µM
TGI (SK-MEL-5 melanoma): > 51.6 µM
TGI (SK-OV-3 ovarian): > 100 µM
TGI (SN12C renal): 36.2 µM
TGI (SNB-19 CNS): > 61.8 µM
TGI (SNB-75 CNS): 39.9 µM
TGI (SR leukemia): > 34.7 µM
TGI (SW-620 colon): 9.92 µM
TGI (T-47D breast): 28.9 µM
TGI (TK-10 renal): 10.8 µM
TGI (U251 CNS): 43.6 µM
TGI (UACC-257 melanoma): 26.3 µM
TGI (UACC-62 melanoma): 31.1 µM
TGI (UO-31 renal): 27.5 µM

Cc1cccc(CC(Cc2ccc(C)cc2C(=O)O)C(=O)O)c1 (stereo not drawn)
TGI (786-0 renal): > 100 µM
TGI (A498 renal): > 100 µM
TGI (A549 NSCLC): > 100 µM
TGI (ACHN renal): > 100 µM
TGI (BT-549 breast): > 100 µM
TGI (CAKI-1 renal): > 100 µM
TGI (CCRF-CEM leukemia): > 100 µM
TGI (COLO 205 colon): > 100 µM
TGI (DU-145 prostate): > 100 µM
TGI (EKVX NSCLC): > 100 µM
TGI (HCC-2998 colon): > 100 µM
TGI (HCT-116 colon): > 100 µM
TGI (HCT-15 colon): > 100 µM
TGI (HL-60(TB) leukemia): > 100 µM
TGI (HOP-62 NSCLC): > 100 µM
TGI (HOP-92 NSCLC): > 100 µM
TGI (HS 578T breast): > 100 µM
TGI (HT29 colon): > 100 µM
TGI (IGROV1 ovarian): > 100 µM
TGI (K-562 leukemia): > 100 µM
TGI (KM12 colon): > 100 µM
TGI (LOX IMVI melanoma): > 100 µM
TGI (M14 melanoma): > 100 µM
TGI (MALME-3M melanoma): > 100 µM
TGI (MCF7 breast): > 100 µM
TGI (MDA-MB-231 breast): > 100 µM
TGI (MDA-MB-435): > 100 µM
TGI (MDA-N): > 100 µM
TGI (MOLT-4 leukemia): > 100 µM
TGI (NCI-H226 lung): > 100 µM
TGI (NCI-H23 lung): > 100 µM
TGI (NCI-H460 lung): > 100 µM
TGI (NCI-H522 lung): > 100000 nM
TGI (NCI/ADR-RES ovarian): > 100 µM
TGI (OVCAR-3 ovarian): > 100 µM
TGI (OVCAR-4 ovarian): > 100 µM
TGI (OVCAR-5 ovarian): > 100 µM
TGI (OVCAR-8 ovarian): > 100 µM
TGI (PC-3 prostate): > 100 µM
TGI (RPMI-8226 leukemia): > 100 µM
TGI (RXF 393 renal): > 100 µM
TGI (SF-268 CNS): > 100 µM
TGI (SF-295 CNS): > 100 µM
TGI (SF-539 CNS): > 100 µM
TGI (SK-MEL-2 melanoma): > 100 µM
TGI (SK-MEL-28 melanoma): > 100 µM
TGI (SK-MEL-5 melanoma): > 100 µM
TGI (SK-OV-3 ovarian): > 100 µM
TGI (SN12C renal): > 100 µM
TGI (SNB-19 CNS): > 100 µM
TGI (SNB-75 CNS): > 100 µM
TGI (SR leukemia): > 100 µM
TGI (SW-620 colon): > 100 µM
TGI (T-47D breast): > 100 µM
TGI (TK-10 renal): > 100 µM
TGI (U251 CNS): > 100 µM
TGI (UACC-257 melanoma): > 100 µM
TGI (UACC-62 melanoma): 96.5 µM
TGI (UO-31 renal): > 100 µM
